Data reported in ChEMBL document CHEMBL3877284, “Discovery of novel dengue virus NS5 methyltransferase non-nucleoside inhibitors by fragment-based drug design” (Eur J Med Chem, 2017).
pIC50: −log10 of the molar value. Active and inactive are the calls of the source. The rule behind the calls is not given here.

Legend:
[1] = Inhibition of West Nile virus Uganda strain B956 NS5 2'-O-MTase activity assessed as reduction in [3H]AdoMet transfer to 7MeGpppAC4 capped RNA substrate after 30 mins by microbeta liquid scintillation counting method
[2] = Inhibition of Dengue virus 3 NS5 N7-MTase activity assessed as reduction in [3H]AdoMet transfer to GpppA2'OMe-RNA74 substrate after 30 mins by microbeta liquid scintillation counting method; set-up: species or system dengue virus type 3
[3] = Inhibition of Dengue virus 3 NS5 2'-O-MTase activity assessed as reduction in [3H]AdoMet transfer to 7MeGpppAC4 capped RNA substrate after 30 mins by microbeta liquid scintillation counting method; set-up: species or system dengue virus type 3
[4] = Cytotoxicity against African green monkey Vero E6 cells up to 100 uM; format: toxicity, cell-based; conditions: chlorocebus sabaeus
dengue virus type 3 = assay: Binding affinity to Dengue virus 3 NS5 methyl transferase domain by thermal shift assay

SMILES	pIC50 [1]	pIC50 [2]	pIC50 [3]	Activity [4]	Activity (dengue virus type 3)
Nc1cc(Cl)ccc1NC(=O)Nc1ccc(S(=O)(=O)Oc2ccc(C(=O)O)cc2)cc1	3.72	< 3.00	3.43		
Nc1cc(C(F)(F)F)ccc1NC(=O)Nc1cccc(S(=O)(=O)Nc2ccc(C(=O)O)cc2)c1	4.29	2.95	4.04	Non-Toxic	
Cc1cc(N)c(N)cc1Cl			2.03		Active
Nc1ccc(C(F)(F)F)cc1N			2.05		Active
Cc1ccc(C(=O)O)c(N)c1			2.55		Active
Nc1cc(Cl)ccc1NC(=O)Nc1cccc(S(=O)(=O)Oc2ccc(C(=O)O)cc2)c1	3.92	< 3.00	3.43		
Nc1cc(Cl)ccc1NC(=O)Nc1cccc(S(=O)(=O)Nc2ccc(C(=O)O)cc2)c1	3.74	< 3.00	3.34		
Nc1cc(Cl)ccc1NC(=O)Nc1ccc(S(=O)(=O)Nc2ccc(C(=O)O)cc2)cc1	3.52	< 3.00	3.36		
Nc1cc(C(F)(F)F)ccc1NC(=O)Nc1ccc(S(=O)(=O)Nc2ccc(C(=O)O)cc2)cc1	4.15	3.13	3.96	Non-Toxic	
